We go through ten compounds from US12419931B2, “Anti-cancer composition” (ACUPHARM INTERNATIONAL PROPRIETARY LIMITED, priority 2020, dated 2025).

In the assay the test system is cultured tissue from needle biopsy, Breast DCIS papillary neoplasm. In words: dose response study with cumulative cell death on cultured patient biopsy tissue (patient 19055). The assay is classed as cell-based, human. To be noted: in vitro cultured biopsy sample, patient 19055, Breast DCIS papillary neoplasm. On the procedure: Comparative studies were performed using curcumin extract as described above (referred to as ACPJL 08), Sutherlandia leaf extract in water (referred to as ACPJL 35), Sutherlandia leaf extract in 50% ethanol and water solution (referred to as ACPJL 28), Sutherlandia leaf extract in 90% ethanol and water solution (referred to as ACPJL 07) and a combinatorial formulation using the curcumin extract and Sutherlandia leaf extract in water and alcohol according to this invention (referred to as ACPJL 20). These extracts were compared to a number of known botanical isolates with anti-cancer activity, as well as a number of known anti-cancer drugs, using a dose response design with cumulative cell death as the dependent variable. These studies were conducted on in vitro samples of cultured tissue, taken as biopsy samples from patients as part of a standard culture and testing process done in order to optimise treatment.
A representative sample of such a study is provided herein below.
Summary of Study of Patient with Assigned Number 19055
Patient from whom sample was obtained was a person presenting with a diagnosis of Breast DCIS papillary neoplasm. The sample was obtained via needle biopsy, before being cultured.
Take `COc1cc2ncnc(Nc3ccc(F)c(Cl)c3)c2cc1OCCCN1CCOCC1` [Gefitinib]: the “overall assessment in standard culture and testing process” value (from here on “overall assessment”) is “potential benefit”.
As for `CC(=O)O[C@@]12CO[C@@H]1C[C@H](O)[C@@]1(C)C(=O)[C@H](O)C3=C(C)[C@@H](OC(=O)[C@H](O)[C@@H](NC(=O)OC(C)(C)C)c4ccccc4)C[C@@](O)([C@@H](OC(=O)c4ccccc4)[C@H]21)C3(C)C` [Docetaxel], the “overall assessment” value is “potential benefit”.
As for `CC[C@]1(O)C[C@H]2CN(CCc3c([nH]c4ccccc34)[C@@](C(=O)OC)(c3cc4c(cc3OC)N(C=O)[C@H]3[C@@](O)(C(=O)OC)[C@H](OC(C)=O)[C@]5(CC)C=CCN6CC[C@]43[C@@H]65)C2)C1` [Vincristine], the entry is “potential benefit”; as for `COc1cc2c(Oc3ccc4[nH]c(C)cc4c3F)ncnc2cc1OCCCN1CCCC1` [Cediranib], “potential benefit”.
Regarding `Nc1nc(Cl)nc2c1ncn2[C@@H]1O[C@H](CO)[C@@H](O)[C@@H]1F` [Clofarabine], the “overall assessment” value is “potential benefit”.
As for `COC(=O)c1ccc2c(c1)NC(=O)/C2=C(\Nc1ccc(N(C)C(=O)CN2CCN(C)CC2)cc1)c1ccccc1` [Nintedanib], the entry is “good efficacy and a positive dose response curve”.
As for `O=C(CCCCCCC(=O)Nc1ccccc1)NO` [Vorinostat], the entry is “potential benefit”; as for `CC(=O)O[C@H]1C(=O)[C@@]2(C)[C@H]([C@H](OC(=O)c3ccccc3)[C@]3(O)C[C@H](OC(=O)[C@H](O)[C@@H](NC(=O)c4ccccc4)c4ccccc4)C(C)=C1C3(C)C)[C@]1(OC(C)=O)CO[C@@H]1C[C@@H]2O` [Paclitaxel], “potential benefit”.
As for `CCC1=C[C@@H]2CN(C1)Cc1c([nH]c3ccccc13)[C@@](C(=O)OC)(c1cc3c(cc1OC)N(C)[C@H]1[C@@](O)(C(=O)OC)[C@H](OC(C)=O)[C@]4(CC)C=CCN5CC[C@]31[C@@H]54)C2` [Vinorelbine], the entry is “potential benefit”; as for `O=C1c2c(O)ccc(O)c2C(=O)c2c(NCCNCCO)ccc(NCCNCCO)c21` [Mitoxantrone], “potential benefit”.
